According to patent US20240277695A1, “FOXO INHIBITORS FOR USE IN THE TREATMENT OF DISEASES CAUSED BY ABNORMAL PROCESSING OF TDP-43 AND/OR FUS PROTEINS” (Administración General de la Comunidad Autónoma de Euskadi, priority 2020, published 2024):

Test system: human immortalized myoblasts (cell line 8220)
Test: 2-deoxyglucose treatment during myoblast proliferation
Assay type: cell-based
Text: FIG. 2. Deficiency of TDP-43 or FUS curtails anaerobic glucose metabolism and induces pro-atrophic pathways in myoblasts. A-B-C, Metabolic switch during myogenesis. Myoblasts rely mainly on anaerobic glycolysis while differentiating myocytes and myotubes switch towards a more aerobic metabolism (n=6 experiments). D, shTDP-43 and shFUS-treated myoblasts display consistent reductions in basal glycolysis and glycolytic capacity (n=6 experiments). E, Levels of lactate are decreased in shTDP-43 and shFUS-treated myoblasts (n=3). F, Basal mitochondrial ATP production is slightly affected by TDP-43 or FUS silencing, however effects on spare respiratory capacity are variable (n=6 experiments). G, Immunofluorescence and immublot images of MyoD in 2dg-treated myoblasts. H, Immunostaining images showing the effect of 2dg on the number of MyHC-postive myotubes. I, Pro-atrophic pathways of the […] (UPS) are dramatically augmented in shTDP-43 and shFUS-treated myoblasts (n=3). ECAR, Extracellular Acidification Rate; OCR, Oxygen Consumption Rate: 2dg, 2-deoxyglucose. T-test, *p<0.05; **p<0.01.
Decreased levels of lactate in homogenates from shTDP-43 and shFUS-treated myoblasts when compared to those from shRNA-treated myoblasts corroborated defects in the anaerobic oxidation of glucose (FIG. 2E). […] The increased numbers of mitochondria, as observed by TEM and TOMM20 staining (FIG. 1F,G), may provide a compelling explanation for the increased aerobic potential of shTDP-43 treated myoblasts.
A poor metabolic fitness in muscle is often associated to the upregulation of protein degradation pathways and atrophy. Expression of the key muscle specific E3 ubiquitin ligases, muscle RING finger 1 (MuRF1) and muscle atrophy F-box (MAFbx)/Atrogin-1, are markers of the activation of ubiquitin/proteasome system and atrophy in skeletal muscle.

[1] = 2-DG during myoblast proliferation

For O=CC[C@@H](O)[C@H](O)[C@H](O)CO [2-DG, 2-deoxyglucose], the “activation of MYOD” value [1] was “reduced the activation of MYOD”, the “myogenic process (MyHC-positive myotubes)” value [1] was “stalled the myogenic process” and the “expression levels of MurF1 and Atrogin-1” value (2-DG treated myoblasts) was “mimicked the effects of TDP-43 and FUS silencing”.
